Where “and” joins values, the source holds several entries; their conditions need not be identical. Equal values may be shown once. Inconclusive results and toxic doses are left out.
Test system: BDF1 mice, P388 leukemia ip, median survival T/C
Test: NCI In Vivo Anticancer Drug Screen. Data for tumor model P388 Leukemia (intraperitoneal) in B6D2F1 (BDF1) mice
Conditions: endpoint: median survival time, higher = longer survival
Summary of the method: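 Survival ratio, drug arm over vehicle arm, in mice with a transplanted tumour.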

[1] = dose: 100.0 mg/kg/injection, schedule: Q01DX009 (ip), vehicle: saline
[2] = dose: 100.0 mg/kg/injection, schedule: Q04DX003 (ip), vehicle: saline
[3] = dose: 200.0 mg/kg/injection, schedule: Q01DX009 (ip), vehicle: saline
[4] = dose: 200.0 mg/kg/injection, schedule: Q04DX003 (ip), vehicle: saline
[5] = dose: 12.5 mg/kg/injection, schedule: Q01DX009 (ip), vehicle: Klucel (hydroxypropylcellulose) (HPC)
[6] = dose: 25.0 mg/kg/injection, schedule: Q01DX009 (ip), vehicle: Klucel (hydroxypropylcellulose) (HPC)
[7] = dose: 50.0 mg/kg/injection, schedule: Q01DX009 (ip), vehicle: Klucel (hydroxypropylcellulose) (HPC)
[8] = dose: 100.0 mg/kg/injection, schedule: Q01DX009 (ip), vehicle: Klucel (hydroxypropylcellulose) (HPC)
[9] = dose: 50.0 mg/kg/injection, schedule: Q01DX009 (ip), vehicle: saline with Tween-80
[10] = dose: 100.0 mg/kg/injection, schedule: Q01DX009 (ip), vehicle: saline with Tween-80
[11] = dose: 200.0 mg/kg/injection, schedule: Q01DX009 (ip), vehicle: saline with Tween-80
[12] = dose: 100.0 mg/kg/injection, schedule: Q04DX003 (ip), vehicle: saline with Tween-80
[13] = dose: 100.0 mg/kg/injection, schedule: Q04DX003 (ip), vehicle: Klucel (hydroxypropylcellulose) (HPC)
[14] = dose: 200.0 mg/kg/injection, schedule: Q04DX003 (ip), vehicle: Klucel (hydroxypropylcellulose) (HPC)

COc1ccc(C=O)cc1OCc1ccccc1
T/C (dose: 6.25 mg/kg/injection, schedule: Q01DX009 (ip), vehicle: water): 113 % of control
T/C (dose: 12.5 mg/kg/injection, schedule: Q01DX009 (ip), vehicle: water): 104 % of control
T/C (dose: 25.0 mg/kg/injection, schedule: Q01DX009 (ip), vehicle: water): 109 % of control
T/C (dose: 50.0 mg/kg/injection, schedule: Q01DX009 (ip), vehicle: water): 101 % of control and 116 % of control
T/C (dose: 50.0 mg/kg/injection, schedule: Q04DX003 (ip), vehicle: water): 104 % of control
T/C (dose: 100.0 mg/kg/injection, schedule: Q01DX009 (ip), vehicle: water): 95 % of control and 97 % of control
T/C (dose: 100.0 mg/kg/injection, schedule: Q04DX003 (ip), vehicle: water): 102 % of control and 117 % of control
T/C (dose: 200.0 mg/kg/injection, schedule: Q01DX009 (ip), vehicle: water): 116 % of control
T/C (dose: 200.0 mg/kg/injection, schedule: Q04DX003 (ip), vehicle: water): 102 % of control and 114 % of control
T/C (dose: 400.0 mg/kg/injection, schedule: Q04DX003 (ip), vehicle: water): 117 % of control

C1=CC2CCC(C1)C21OCCO1 (stereo not drawn)
T/C [1]: 90 % of control
T/C [2]: 95 % of control
T/C [3]: 109 % of control
T/C [4]: 104 % of control
T/C (dose: 400.0 mg/kg/injection, schedule: Q01DX009 (ip), vehicle: saline): 109 % of control
T/C (dose: 400.0 mg/kg/injection, schedule: Q04DX003 (ip), vehicle: saline): 108 % of control

c1ccc2c(c1)C1c3cccc[n+]3C2CC1n1c2ccccc2c2ccccc21 (stereo not drawn)
T/C (dose: 6.25 mg/kg/injection, schedule: Q01DX009 (ip), vehicle: Klucel (hydroxypropylcellulose) (HPC)): 100 % of control
T/C [5]: 100 % of control and 108 % of control
T/C (dose: 16.0 mg/kg/injection, schedule: Q01DX009 (ip), vehicle: Klucel (hydroxypropylcellulose) (HPC)): 100 % of control
T/C [6]: 87 % of control and 113 % of control
T/C [7]: 91 % of control
T/C [8]: 100 % of control

S=c1[nH]c2ccccc2s1.[Zn+2]
T/C [9]: 98 % of control
T/C [10]: 100 % of control
T/C [11]: 99 % of control

ClCCOC(OCCCl)OCCCl
T/C (dose: 25.0 mg/kg/injection, schedule: Q01DX009 (ip), vehicle: saline with Tween-80): 113 % of control
T/C [9]: 109 % of control
T/C [12]: 95 % of control

CCN(CC)CC(=O)Nc1ccc(Cl)cc1Cc1ccccc1
T/C [9]: 110 % of control
T/C [10]: 106 % of control
T/C [11]: 105 % of control

CN(C)C(=S)Sc1ccc([N+](=O)[O-])cc1[N+](=O)[O-]
T/C (dose: 100.0 mg/kg/injection, schedule: Q01DX001 (ip), vehicle: Klucel (hydroxypropylcellulose) (HPC)): 100 % of control
T/C [13]: 100 % of control
T/C (dose: 200.0 mg/kg/injection, schedule: Q01DX001 (ip), vehicle: Klucel (hydroxypropylcellulose) (HPC)): 100 % of control
T/C [14]: 104 % of control
T/C (dose: 400.0 mg/kg/injection, schedule: Q01DX001 (ip), vehicle: Klucel (hydroxypropylcellulose) (HPC)): 100 % of control
T/C (dose: 400.0 mg/kg/injection, schedule: Q04DX003 (ip), vehicle: Klucel (hydroxypropylcellulose) (HPC)): 108 % of control

N#Cc1cnc2nc(N)nc(N)c2c1
T/C (dose: 50.0 mg/kg/injection, schedule: Q01DX009 (ip), vehicle: saline): 104 % of control
T/C [1]: 107 % of control
T/C [2]: 108 % of control
T/C [3]: 117 % of control
T/C [4]: 116 % of control

c1ccc(-c2nnc3oc(-c4cccs4)nn23)cc1
T/C [10]: 86 % of control
T/C [11]: 90 % of control
T/C (dose: 400.0 mg/kg/injection, schedule: Q01DX009 (ip), vehicle: saline with Tween-80): 90 % of control

Nc1nc(N)nc(CCP(CCc2nc(N)nc(N)n2)CCc2nc(N)nc(N)n2)n1
T/C (dose: 50.0 mg/kg/injection, schedule: Q04DX003 (ip), vehicle: saline sonified): 100 % of control
T/C (dose: 100.0 mg/kg/injection, schedule: Q04DX003 (ip), vehicle: saline sonified): 110 % of control
T/C (dose: 200.0 mg/kg/injection, schedule: Q04DX003 (ip), vehicle: saline sonified): 110 % of control

NC(=S)NCCO
T/C (dose: 100.0 mg/kg/injection, schedule: Q01DX001 (ip), vehicle: saline): 104 % of control
T/C (dose: 200.0 mg/kg/injection, schedule: Q01DX001 (ip), vehicle: saline): 95 % of control
T/C (dose: 400.0 mg/kg/injection, schedule: Q01DX001 (ip), vehicle: saline): 100 % of control

C/C(CCCCl)=N/N=C(N)N
T/C (dose: 7.03 mg/kg/injection, schedule: Q01DX001 (ip), vehicle: saline): 104 % of control
T/C (dose: 14.06 mg/kg/injection, schedule: Q01DX001 (ip), vehicle: saline): 100 % of control
T/C (dose: 18.75 mg/kg/injection, schedule: Q01DX009 (ip), vehicle: saline): 115 % of control
T/C (dose: 18.75 mg/kg/injection, schedule: Q04DX003 (ip), vehicle: saline): 109 % of control
T/C (dose: 37.5 mg/kg/injection, schedule: Q01DX009 (ip), vehicle: saline): 115 % of control
T/C (dose: 37.5 mg/kg/injection, schedule: Q04DX003 (ip), vehicle: saline): 100 % of control
T/C (dose: 50.0 mg/kg/injection, schedule: Q04DX003 (ip), vehicle: saline): 122 % of control
T/C (dose: 75.0 mg/kg/injection, schedule: Q01DX009 (ip), vehicle: saline): 115 % of control
T/C (dose: 75.0 mg/kg/injection, schedule: Q04DX003 (ip), vehicle: saline): 100 % of control

CN(N=O)C(=O)Nc1ccc(C(=O)O)cc1
T/C (dose: 29.0 mg/kg/injection, schedule: Q04DX003 (ip), vehicle: saline with Tween-80): 159 % of control
T/C (dose: 45.0 mg/kg/injection, schedule: Q04DX003 (ip), vehicle: saline with Tween-80): 163 % of control
T/C (dose: 66.0 mg/kg/injection, schedule: Q04DX003 (ip), vehicle: saline with Tween-80): 170 % of control
T/C [12]: 250 % of control
T/C (dose: 150.0 mg/kg/injection, schedule: Q04DX003 (ip), vehicle: saline with Tween-80): 240 % of control

O=c1ccc(=O)c2c(=O)c3ccccc3c(=O)c1=2
T/C [6]: 104 % of control
T/C [7]: 103 % of control
T/C (dose: 50.0 mg/kg/injection, schedule: Q04DX003 (ip), vehicle: Klucel (hydroxypropylcellulose) (HPC)): 95 % of control
T/C [8]: 99 % of control
T/C [13]: 104 % of control
T/C [14]: 88 % of control

CC(=O)OC1CC2(C)C3(CO3)C1OC1C=C(C)C(=O)C(O)C12CO (stereo not drawn)
T/C (dose: 5.0 mg/kg/injection, schedule: Q04DX002 (ip), vehicle: saline + alcohol): 105 % of control
T/C (dose: 10.0 mg/kg/injection, schedule: Q04DX002 (ip), vehicle: saline + alcohol): 100 % of control
T/C (dose: 20.0 mg/kg/injection, schedule: Q04DX002 (ip), vehicle: saline + alcohol): 107 % of control
T/C (dose: 40.0 mg/kg/injection, schedule: Q04DX002 (ip), vehicle: saline + alcohol): 109 % of control

COc1cc2ccc3c(c2cc1OC)C(=O)CNC3C (stereo not drawn)
T/C (dose: 3.13 mg/kg/injection, schedule: Q01DX009 (ip), vehicle: saline): 104 % of control
T/C (dose: 3.13 mg/kg/injection, schedule: Q04DX003 (ip), vehicle: saline): 109 % of control
T/C (dose: 6.25 mg/kg/injection, schedule: Q01DX009 (ip), vehicle: saline): 100 % of control
T/C (dose: 6.25 mg/kg/injection, schedule: Q04DX003 (ip), vehicle: saline): 100 % of control
T/C (dose: 12.5 mg/kg/injection, schedule: Q01DX009 (ip), vehicle: saline): 100 % of control
T/C (dose: 12.5 mg/kg/injection, schedule: Q04DX003 (ip), vehicle: saline): 109 % of control

CCC(C#N)C1=CCCCCC1 (stereo not drawn)
T/C (dose: 25.0 mg/kg/injection, schedule: Q04DX003 (ip), vehicle: saline with Tween-80): 109 % of control
T/C (dose: 50.0 mg/kg/injection, schedule: Q04DX003 (ip), vehicle: saline with Tween-80): 121 % of control
T/C [12]: 118 % of control

Cn1c(C(Cl)Cl)nc2ccccc2c1=O
T/C [5]: 100 % of control
T/C [6]: 100 % of control
T/C [7]: 95 % of control
T/C (dose: 75.0 mg/kg/injection, schedule: Q01DX009 (ip), vehicle: Klucel (hydroxypropylcellulose) (HPC)): 100 % of control
T/C (dose: 115.0 mg/kg/injection, schedule: Q01DX009 (ip), vehicle: Klucel (hydroxypropylcellulose) (HPC)): 114 % of control
T/C (dose: 170.0 mg/kg/injection, schedule: Q01DX009 (ip), vehicle: Klucel (hydroxypropylcellulose) (HPC)): 95 % of control

O=C1/C(=C\c2ccc(Cl)cc2Cl)SC(=S)N1Cc1ccco1
T/C [9]: 97 % of control
T/C [10]: 91 % of control
T/C [11]: 88 % of control

From PubChem BioAssay AID328 (DTP/NCI, 2004)
